Data published in patent US12661338B2, “Heterocyclic compounds as modulators of beta-catenin / TCF4 interaction” (AGENCY FOR SCIENCE, TECHNOLOGY AND RESEARCH, priority 2019, dated 2026).

Legend:
[1] = biological target: T1, His-tagged human β-cat (134-668) (Homo sapiens, UniProt P35222); experiment: SPR binding to β-cat
T1 construct: His-tagged human β-cat (134-668); made in house; host or cells: E. coli BL21(DE3)
Description: BL21(DE3) cells harboring pET-28 β-cat expression vector of His-tagged human β-cat (134-668) were cultured at 37° C. until OD600=0.6-0.8. The cells were then induced with 500 μM isopropyl-β-D-thiogalactopyranoside (IPTG) for 6-8 hr at 23° C. Cells were lysed by sonication in lysis buffer containing 20 mM Tris (pH 8.8), 250 mM NaCl, 2 mM DTT, 5% glycerol, 0.1% Triton X-100, and cOmplete protease inhibitor cocktail (EDTA free, Roche cat. #11873580001). The lysate was incubated with Ni-NTA agarose beads (Qiagen cat. #30210) at 4° C. for 1 hr, and the beads were then washed with lysis buffer containing 20 mM imidazole. Bound protein was eluted with buffer containing 20 mM Tris (pH 8.8), 250 mM NaCl, 0.5 mM tris(2-carboxyethyl)phosphine (TCEP), 5% glycerol, and 250 mM imidazole.
Surface plasmon resonance experiments were performed using a BIACORE T100 (GE Healthcare) on a CM5 series S sensor chip (GE Healthcare cat. #BR-1005-30). His-tagged β-cat (60 kDa, >90% pure based on SDS-PAGE) was immobilized using amine-coupling chemistry. The surfaces of flow cells one and two were activated with a 1:1 mixture of 0.1 M NHS (N-hydroxysuccinimide) and 0.1 M EDC (3-(N,N-dimethylamino) propyl-N-ethylcarbodiimide) at a flow rate of 5 μL/min. […]

[2] = tested on: CRC1837; experiment: Viability of primary patient-derived colorectal cancer cell line; type: cell-based; details: CRC1837, Liver Met
[3] = biological target: T2, β-cat-TCF4 interaction (Homo sapiens, UniProt P35222, DEL45-45); experiment: Co-immunoprecipitation of β-cat and TCF4 in HCT116 cells; type: cell-based; details: 18 hr
T2 construct: endogenous in cells; host or cells: HCT116
T2 sequence (P35222 with tags, fused parts or gaps DEL45-45): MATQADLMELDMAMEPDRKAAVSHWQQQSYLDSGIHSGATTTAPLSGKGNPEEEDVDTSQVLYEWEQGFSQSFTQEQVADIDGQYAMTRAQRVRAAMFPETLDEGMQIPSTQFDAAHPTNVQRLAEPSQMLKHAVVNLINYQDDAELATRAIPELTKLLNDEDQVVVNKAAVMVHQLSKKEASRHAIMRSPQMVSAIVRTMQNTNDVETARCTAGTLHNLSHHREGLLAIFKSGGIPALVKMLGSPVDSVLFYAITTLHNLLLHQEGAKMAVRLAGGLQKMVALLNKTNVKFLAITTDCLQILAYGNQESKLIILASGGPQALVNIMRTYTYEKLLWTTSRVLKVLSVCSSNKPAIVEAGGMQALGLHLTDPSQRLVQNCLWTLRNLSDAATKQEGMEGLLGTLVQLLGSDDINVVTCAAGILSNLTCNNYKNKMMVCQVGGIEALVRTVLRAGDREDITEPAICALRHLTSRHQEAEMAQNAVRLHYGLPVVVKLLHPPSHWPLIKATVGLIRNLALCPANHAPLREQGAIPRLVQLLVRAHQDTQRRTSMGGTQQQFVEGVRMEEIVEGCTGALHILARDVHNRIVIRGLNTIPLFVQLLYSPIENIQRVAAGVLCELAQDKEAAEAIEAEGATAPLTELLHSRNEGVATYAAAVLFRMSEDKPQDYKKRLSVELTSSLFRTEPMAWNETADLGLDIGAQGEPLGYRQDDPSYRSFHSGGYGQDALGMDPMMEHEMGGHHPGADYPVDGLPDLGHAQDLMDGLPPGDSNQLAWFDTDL
Description: HCT116 cells were treated for 18 hr with compounds at the indicated concentrations. Cells were lysed on ice in lysis buffer containing 20 mM HEPES, pH 7.5, 137 mM NaCl, 1.5 mM MgCl2, 1 mM EGTA, 1 mM dithiothreitol (DTT), 1% Triton X-100, 10% glycerol, cOmplete protease inhibitor cocktail (Roche cat. #11697498001), and 1 mM Na3VO4. Each sample of cleared protein lysate was incubated overnight at 4° C. with 4 μg anti-β-cat antibody (Sigma cat. #C7207) followed by 1 hr incubation with a 50 μL slurry of Dynabeads Protein G (Invitrogen cat. #10004D) at 4° C. The beads were then washed three times with lysis buffer at 4° C., and the bound protein was eluted by heating the beads with 30 μL (per sample) of SDS sample buffer at 95° C. for 7 min. protein was resolved by SDS-PAGE and blotted onto PVDF membrane (Millipore cat. #IPVH00010). Primary antibodies were incubated overnight at 4° C. and the blots were detected with either IRDye 800CW goat anti-rabbit antibody (LI-COR cat. #926-32211) or IRDye 680RD goat anti-mouse antibody (LI-COR cat. #926-68070) at 1:5000 dilution. Signals were visualized with the LI-COR Odyssey CLx imaging system and bands were quantified using LI-COR Image Studio data analysis software. […]

[4] = tested on: CRC1489; experiment: Viability of primary patient-derived colorectal cancer cell line; type: cell-based
[5] = tested on: CRC2255; experiment: as above; type: cell-based
[6] = tested on: HCT116 cells; experiment: Proliferation assay (CellTiter-Glo); type: cell-based; details: 10 μM daily
Description: HCT 116 cells were seeded as 3,000 cells in 100 μL growth medium per well in 96-well plates (Corning cat. #3903) and allowed to attached overnight. Cells were then treated continuously with compounds at a final concentration of 10 μM, 0.1% DMSO, for 4 days with daily medium change. Cell proliferation each day was determined using CellTiter-Glo luminescent cell viability assay (Promega cat. #G7573) according to the manufacturer's protocol.

[7] = tested on: CRC1846; experiment: Viability of primary patient-derived colorectal cancer cell line; type: cell-based
[8] = tested on: HCT116 cells; experiment: Dose response viability of CRC cells (CellTiter-Glo); type: cell-based; details: Homo sapiens, HCT-116, 24 hr
Description: (§1) HCT116, DLD-1, and SW480 cells were seeded as 5,000 cells in 100 μL growth medium per well in 96-well plates (Corning cat. #3903). The next day, 5-fold dilutions of the compounds in DMSO were added to the cells at a final concentration of 1% DMSO. After 24 hr incubation, the viability of the cells was determined with CellTiter-Glo luminescent cell viability reagent (Promega cat. #G7573) according to the manufacturer's protocol.
(§2) The average signal from DMSO treated wells was calculated for each plate, and the signal from each treatment well was normalized against the average DMSO signal from the respective plate. The normalized values were plotted against the concentrations tested using GraphPad Prism 5, and the EC50 values were determined through either three- or four-parameter nonlinear regression.

[9] = tested on: SW480 cells; experiment: as above; type: cell-based; details: Homo sapiens, 24 hr
Description: as §1, §2

[10] = tested on: DLD-1 cells; experiment: as above; type: cell-based; details: Homo sapiens, 24 hr
Description: as §1, §2

[11] = tested on: Wnt target genes in HCT116 CRC cells; experiment: Expression of beta-catenin (CTNNB1) and Wnt target genes in HCT116 CRC cells; type: cell-based
Description: The effects of the GB1874 analogues were tested on the expression of Wnt target genes in HCT116 CRC cells.

T1 sequence (P35222 134-668): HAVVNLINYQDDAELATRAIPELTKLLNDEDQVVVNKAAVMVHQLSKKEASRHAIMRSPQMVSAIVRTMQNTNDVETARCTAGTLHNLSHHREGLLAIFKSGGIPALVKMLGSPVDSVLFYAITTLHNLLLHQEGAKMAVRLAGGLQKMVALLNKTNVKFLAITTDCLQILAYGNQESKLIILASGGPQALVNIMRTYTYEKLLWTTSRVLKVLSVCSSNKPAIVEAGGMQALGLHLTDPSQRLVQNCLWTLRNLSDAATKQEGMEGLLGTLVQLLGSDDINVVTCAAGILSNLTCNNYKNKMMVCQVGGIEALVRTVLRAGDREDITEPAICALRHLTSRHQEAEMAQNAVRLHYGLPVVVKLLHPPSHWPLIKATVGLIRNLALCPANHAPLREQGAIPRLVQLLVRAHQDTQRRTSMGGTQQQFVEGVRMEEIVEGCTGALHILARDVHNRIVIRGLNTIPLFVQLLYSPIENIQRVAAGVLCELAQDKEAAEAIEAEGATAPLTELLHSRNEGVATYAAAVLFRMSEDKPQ

CCc1ccc(OCc2nnc(SC3CCCC3=O)n2C(C)c2ccccc2)cc1 (stereo not shown) [GB1874]
Kd ([1]; SPR steady state, n=3, 25° C., read-out: dissociation constant KD): 76 ± 13 µM
Hill slope of the best fit curve ([1]; SPR steady-state binding curve): greater than 1
EC50 [2]: 21 µM
β-cat-TCF4 interaction (co-IP) [3]: reduce the β-cat-TCF4 interaction to the same extent as iCRT3
EC50 [4]: 41 µM
EC50 [5]: 20 µM
growth of HCT116 cells [6]: effectively inhibited the growth of HCT116 cells
EC50 [7]: 17 µM
EC50 [8]: 45 µM
EC50 [9]: 24 µM
EC50 [10]: 28 µM
beta-catenin (CTNNB1) gene expression [11]: lesser effect
expression of Wnt target genes AXIN2, BIRC5, BMP4, CCND1 [11]: potently inhibit Wnt target genes
